Among the data in article PMC7405012, “Detection of Chaetomium globosum, Ch. cochliodes and Ch. rectangulare during the Diversity Tracking of Mycotoxin-Producing Chaetomium-like Isolates Obtained in Buildings in Finland” (Toxins, 2020) are EC50 values, retold here.

One may read the EC50 as the concentration at which the effect is half-maximal.

In brackets after ≈: the same amount, converted by molar mass. Like-named read-outs stand apart in the source and are kept apart here.

In experiment [1] the test system is porcine kidney cells (PK-15). Put plainly: cells. The format is cell-based.
The test system of experiment [2] is murine neuroblastoma cells (MNA). Put plainly: Inhibition of cell proliferation (ICP) assay, MNA. It is filed as cell-based. The procedure:
The plate-grown biomass of the fungal pure cultures (100–300 mg) was extracted with ethanol as described earlier. The toxicity assays, namely BSMI assay after exposure for 30 min (rapid inhibition) and for one day (slow inhibition), SMID assay and ICP assay, were all described previously. The toxicity assays involving the ethanol extracts obtained from pure fungal cultures were performed using porcine cells (sperms and somatic cell lines) as indicators according to methods described before. The calculation of EC50—the half maximal effective concentration for the ethanol-dry substances and pure mycotoxins in the BSMI, SMID and ICP assays—were described previously.
The continuous cell line PK-15 (porcine kidney cells) and a malignant cell line (MNA cell line) provided by EVIRA (Helsinki, Finland) were used in the ICP assay. 5,5′,6,6′-tetrachloro-1,1′,3,3′-tetraethyl-benzimidazolylcarbocyanine iodide (JC-1, 3520-43-2), PI (25535-16-4) and calcein-AM (148504-34-1) were obtained from Invitrogen (Carlsbad, CA, USA). Alamethicin A4665 (T. arundinaceum) (CAS 27061-78-5), a mixture of alamethicin F50 peptaibols (MW 1962, 1976, 1976 and 1990), chaetoglobosin A (CAS 50335-03-0), sterigmatocystin (CAS 10048-13-5) and ochratoxin A (CAS 303-47-9) were obtained from Sigma-Aldrich (St. Louis, MO, USA). Malt extract and tryptic soy agar were obtained from Scharlab (Barcelona, Spain). The other chemicals were of analytical grade and were purchased from local suppliers. The biocides and the wetting agent Genapol-080 were purchased from Sigma-Aldrich Finland. The fungicide Boracol 10Rh was obtained from a local supplier. The selected biocides were Borax (600 µg mL^−1; sodium tetraborate, CAS: 1330-43-4), Boracol 10Rh containing disodium octaborate tetrahydrate (CAS: 12280-03-04) and didecyldimethylammonium chloride [CAS: 7173-51-5]), PHMB (CAS: 27083-27-8), phenoxyethanol (CAS: 122-99-6), chloramine, triclosan (5-Chloro-2-(2,4-dichlorophenoxy)phenol, CAS: 3380-34-5) and the wetting agent Genapol X-080 (CAS: 9043-30-5). Genapol X-080 and the biocides were purchased from Sigma-Aldrich, except for Boracol 10Rh, which was purchased from a local supplier.

The subject of a further experiment is Ch. globosum 2c/MT. As to the kind of experiment: Resistance to biocides: ascospore germination. It is filed as cell-based, Chaetomium globosum. The settings on record: strain 2c/MT, indoor Ch. globosum. The procedure:
(§1) The toxicity of biocides and chemicals towards the indoor Chaetomium-like isolates and the reference indoor strains of the genera Aspergillus, Paecilomyces, Penicillium and Trichoderma was assessed in parallel with the six parameters presented in the Supplementary Materials: (1) germ tube assay (Figure S3); (2) estimation of turbidity (Figure S4); (3) visual emission of fluorescence (excitation at 360 nm); (4) visual resporulation of conidia; (5) inhibition of glucose consumption; and (6) resazurin reduction. All assays were performed in malt extract broth (12 g L^−1 malt extract, 7.2 µmol mL^−1 glucose, pH 5.5; Scharlab, Barcelona, Spain) in 96-well microtiter plates as described for the ICP assay.
(§2) The assays measuring inhibition of germination of conidia were done with spore suspensions of 1–2 × 10^6 fungal spores mL−^1. The tests were performed in malt extract broth (Oxoid, Hampshire United Kingdom) 12 g in 1 L, pH 5.5, glucose 7.1 mmol L^−1, and performed on microtiter plates as described by Bencsik et al. for the ICP assay. The germ tube germination is visualized in Figure S3, and the tests estimating turbidity and emission of fluorescence provoked by the germinated and metabolically active conidia and C. globosum ascospores are visualized in Figures S4 and S5. Examples of the tests estimating fluorescence emission, turbidity and re-sporulation of conidia and ascospores are compared in Figure S5. The difference of the endpoints measured with the different assays was between […]. The resazurin reduction assays (Figure S6) were performed as described for the ICP assay, except that the microtiter plates were visually inspected for the change of the blue/violet color of resazurin (indicating inhibition of germination of the exposed conidia) to the […] (indicating metabolic activity and germination of the exposed conidia).
(§3) The formation of germ tubes was inspected by a phase-contrast microscope (Olympus CKX41, Tokyo, Japan; magnification 400×) and an image recording software (Cellsense® standard version 11.0.06, Olympus Soft Imaging Solutions GmbH, Münster, Germany, 2012) after 1 and 2 days of incubation at 28 °C. The EC50 corresponded to the inhibition of 50% (estimated as the concentration between EC0 and EC100) of the conidia compared to the ethanol control (the growth medium containing 1% of ethanol). The tests were run in triplicate and calibrated with triclosan (CAS: 3380-34-5; Sigma Chemical Co., St. Louis, MO, USA) giving a mean SD of ±<20%.

A further experiment concerns Ch. globosum 3b/AP. As to the kind of experiment: Resistance to biocides: ascospore germination. The format is cell-based, Chaetomium globosum. As to conditions: strain 3b/AP, indoor Ch. globosum. The procedure: as §1, §2, §3
For another experiment, the system named is Ch. globosum ABCD. As to the kind of experiment: Resistance to biocides: ascospore germination. It is filed as cell-based, Chaetomium globosum. The settings on record: strain ABCD, indoor Ch. globosum. The procedure:
as §1, §2, §3

The test system of the next experiment is Ch. globosum C22/LM. As to the kind of experiment: Resistance to biocides: ascospore germination. It is filed as cell-based, Chaetomium globosum. The settings on record: strain C22/LM, indoor Ch. globosum. The procedure:
as §1, §2, §3

In a further experiment the test system is Ch. globosum HAS5. Put plainly: Resistance to biocides: ascospore germination. The format is cell-based, Chaetomium globosum. The settings on record: strain HAS5, indoor Ch. globosum. The procedure:
as §1, §2, §3

A further experiment concerns Ch. globosum MH 52. As to the kind of experiment: Resistance to biocides: ascospore germination. The format is cell-based, Chaetomium globosum. As to conditions: strain MH 52, indoor Ch. globosum. The procedure:
as §1, §2, §3

The subject of a further experiment is Ch. globosum MO9. Put plainly: Resistance to biocides: ascospore germination. It is filed as cell-based, Chaetomium globosum. The settings on record: strain MO9, indoor Ch. globosum. The procedure: as §1, §2, §3
The subject of another experiment is Ch. globosum MTAV35. Put plainly: Resistance to biocides: ascospore germination. It is filed as cell-based, Chaetomium globosum. As to conditions: strain MTAV35, indoor Ch. globosum, median of four independent measurements with five methods. The protocol:
as §1, §2, §3

Another experiment has as its system Ch. globosum MTAV37. As to the kind of experiment: Resistance to biocides: ascospore germination. It is filed as cell-based, Chaetomium globosum. The settings on record: strain MTAV37, indoor Ch. globosum. The procedure: as §1, §2, §3
In a further experiment the test system is Ch. globosum RUK10. As to the kind of experiment: Resistance to biocides: ascospore germination. It is filed as cell-based, Chaetomium globosum. As to conditions: strain RUK10, indoor Ch. globosum. The procedure:
as §1, §2, §3

The mark [3] stands for this setting: Sus scrofa, mammalian cell line PK-15 (ICT assay), read-out: EC50.
The mark [4] stands for this setting: Mus musculus, Neuroblastoma cell, mammalian cell line MNA (ICT assay), read-out: EC50.
Where [5] appears, read: Chaetomium globosum, read-out: EC50.
[6] abbreviates: Chaetomium globosum, MH52, read-out: EC50.
Setting [7] is: mammalian cell line PK-15 (ICT assay).
Where [8] appears, read: mammalian cell line MNA (ICT assay).

`C/C1=C\[C@@H](C)C/C=C/[C@H]2[C@@H]3O[C@]3(C)[C@@H](C)[C@H]3[C@H](Cc4c[nH]c5ccccc45)NC(=O)[C@]32C(=O)/C=C/C(=O)[C@@H]1O` [Chaetoglobosin A, chaetoglobosin A]: the EC50 in experiment [1] (Sus scrofa, 48 h, PK-15, 2 days, 37 °C, read-out: EC50 ICP PK-15 2 days) was determined as 3 µg/mL (≈ 5.67 µM); in experiment [2] (Mus musculus, Neuroblastoma cell, 48 h, MNA, 2 days, 37 °C, read-out: EC50 ICP MNA 2 days), 1 µg/mL (≈ 1.89 µM).
Consider `O=BOB(O)OB(O)OB=O` [Borax, sodium tetraborate], for which the EC50 is 600 µg/mL in experiment [1] (setting [3]); 150 µg/mL in experiment [2] (setting [4]); above 5000 µg/mL with Ch. globosum 2c/MT (setting [5]); above 5000 µg/mL in the experiment on Ch. globosum 3b/AP (setting [5]); 5000 µg/mL in the experiment with Ch. globosum ABCD (setting [5]); above 5000 µg/mL in the experiment with Ch. globosum C22/LM (setting [5]). Besides, the EC50 in the experiment on Ch. globosum HAS5 (setting [5]) was above 5000 µg/mL; with Ch. globosum MH 52 (setting [6]), 5000 µg/mL; with Ch. globosum MO9 (setting [5]), above 5000 µg/mL; with Ch. globosum MTAV35 (setting [5]) it was 5000 µg/mL; in the experiment with Ch. globosum MTAV37 (setting [5]), 5000 µg/mL; in the experiment on Ch. globosum RUK10 (setting [5]) it was 5000 µg/mL.
Regarding `OCCOc1ccccc1` [Phenoxy-ethanol, phenoxyethanol], the EC50 in experiment [1] (setting [3]) was 1500 µg/mL (≈ 10900 µM); in experiment [2] (setting [4]), 400 µg/mL (≈ 2900 µM); with Ch. globosum 2c/MT (setting [5]), 1500 µg/mL (≈ 10900 µM); in the experiment on Ch. globosum 3b/AP (setting [5]), 1500 µg/mL (≈ 10900 µM); in the experiment on Ch. globosum ABCD (setting [5]) it was 1500 µg/mL (≈ 10900 µM); in the experiment with Ch. globosum C22/LM (setting [5]), 1500 µg/mL (≈ 10900 µM). Also, the EC50 in the experiment on Ch. globosum HAS5 (setting [5]) amounted to 1500 µg/mL (≈ 10900 µM); in the experiment with Ch. globosum MH 52 (setting [6]), 1500 µg/mL (≈ 10900 µM); in the experiment on Ch. globosum MO9 (setting [5]), 700 µg/mL (≈ 5070 µM); in the experiment on Ch. globosum MTAV35 (setting [5]) it was 700 µg/mL (≈ 5070 µM); in the experiment with Ch. globosum MTAV37 (setting [5]) it was 700 µg/mL (≈ 5070 µM); with Ch. globosum RUK10 (setting [5]), 1500 µg/mL (≈ 10900 µM).
As to “polyhexamethylene biguanide hydrochloride [PHMB]”, the EC50 is 15 µg/mL in [1] (setting [7]); 4 µg/mL in experiment [2] (setting [8]); 8 µg/mL in the experiment with Ch. globosum 2c/MT; 8 µg/mL in the experiment with Ch. globosum 3b/AP; 4 µg/mL in the experiment on Ch. globosum ABCD; 8 µg/mL in the experiment with Ch. globosum C22/LM. The EC50 in the experiment with Ch. globosum HAS5 was determined as 8 µg/mL; in the experiment with Ch. globosum MH 52 it was 4 µg/mL; with Ch. globosum MO9, 4 µg/mL; in the experiment with Ch. globosum MTAV35 it was 4 µg/mL; in the experiment with Ch. globosum MTAV37 it was 4 µg/mL; with Ch. globosum RUK10, 4 µg/mL.
As to `NCl` [Chloramine, chloramine], the EC50 in experiment [1] (setting [7]) worked out at 150 µg/mL (≈ 2910 µM); in experiment [2] (setting [8]), 80 µg/mL (≈ 1550 µM); in the experiment on Ch. globosum 2c/MT it was 2500 µg/mL (≈ 48600 µM); with Ch. globosum 3b/AP, 2500 µg/mL (≈ 48600 µM); in the experiment with Ch. globosum C22/LM, 2500 µg/mL (≈ 48600 µM); with Ch. globosum HAS5, 2500 µg/mL (≈ 48600 µM). In addition, the EC50 in the experiment with Ch. globosum MO9 and in the experiment with Ch. globosum RUK10 was 2500 µg/mL (≈ 48600 µM) throughout.
`Oc1cc(Cl)ccc1Oc1ccc(Cl)cc1Cl` [Triclosan, 5-Chloro-2-(2,4-dichlorophenoxy)phenol]: the EC50 in experiment [1] (setting [3]) was 8 to 15 µg/mL (≈ 27.6 to 51.8 µM); in [2] (setting [4]) it was 4 to 8 µg/mL (≈ 13.8 to 27.6 µM); with Ch. globosum 2c/MT (setting [5]), 4 µg/mL (≈ 13.8 µM); with Ch. globosum 3b/AP (setting [5]), 4 µg/mL (≈ 13.8 µM); with Ch. globosum ABCD (setting [5]), 4 µg/mL (≈ 13.8 µM); in the experiment on Ch. globosum C22/LM (setting [5]), 4 µg/mL (≈ 13.8 µM). Further, the concentration for a half-maximal effect (EC50) in the experiment on Ch. globosum HAS5 (setting [5]) came to 2 µg/mL (≈ 6.91 µM); with Ch. globosum MH 52 (setting [6]) it was 2 µg/mL (≈ 6.91 µM); in the experiment on Ch. globosum MO9 (setting [5]), 2 µg/mL (≈ 6.91 µM); in the experiment on Ch. globosum MTAV35 (setting [5]), 2 µg/mL (≈ 6.91 µM); in the experiment with Ch. globosum MTAV37 (setting [5]) it was 4 µg/mL (≈ 13.8 µM); in the experiment on Ch. globosum RUK10 (setting [5]) it was 2 µg/mL (≈ 6.91 µM).
